This is an account of results in patent US20080194466A1, “(5Z)-5-(6-Quinoxalinylmethylidene)-2-[(2,4,6-Trichlorophenyl)Amino]-1,3-Thiazol-4(5H)-One” (priority 2005, published 2008).

The nature of data set [1]: Oral bioavailability (blood exposure, DNAUC) in rats. The following applies: for Oral DNAUC rats (Sprague-Dawley): sodium salts, oral gavage, dose ~1-4 mg/kg, 50% PEG-400, 10% ethanol, 40% of 40% (w/v) aqueous Encapsin, blood, LC/MS/MS, 0-1440 min. The class given is in vivo, male Sprague-Dawley rats. The procedure: The sodium salt of Compound A was fed to male Sprague-Dawley rats by oral gavage in a formulation with 50% PEG-400, 10% ethanol, 40% of 40% (w/v) aqueous Encapsin in water at a dose of between 1 and 4 mg/kg (16 mL of dose solution per kg). Blood (120 microliters) was sampled at the following time intervals: 0, 20, 40, 60, 120, 180, 240, 360, 480, and 1440 min. The concentration of Compound A was quantified by LC/MS/Ms analysis of an aliquot (25 microliters blood+25 microliters water) of these samples and the overall blood exposure reported as the Dose-Normalised Area Under the Curve (DNAUC) from a concentration versus time plot and expressed in the units microgram hours per milliliter per […] per kilogram (ug.h/mL/mg/kg). The oral exposures of the sodium salt of Compound B and the sodium salt of Compound C were quantified by the same method.

Data set [2] addresses T1, hYAK3 kinase enzyme (Homo sapiens, UniProt O43781).
T1 sequence (O43781 1-588): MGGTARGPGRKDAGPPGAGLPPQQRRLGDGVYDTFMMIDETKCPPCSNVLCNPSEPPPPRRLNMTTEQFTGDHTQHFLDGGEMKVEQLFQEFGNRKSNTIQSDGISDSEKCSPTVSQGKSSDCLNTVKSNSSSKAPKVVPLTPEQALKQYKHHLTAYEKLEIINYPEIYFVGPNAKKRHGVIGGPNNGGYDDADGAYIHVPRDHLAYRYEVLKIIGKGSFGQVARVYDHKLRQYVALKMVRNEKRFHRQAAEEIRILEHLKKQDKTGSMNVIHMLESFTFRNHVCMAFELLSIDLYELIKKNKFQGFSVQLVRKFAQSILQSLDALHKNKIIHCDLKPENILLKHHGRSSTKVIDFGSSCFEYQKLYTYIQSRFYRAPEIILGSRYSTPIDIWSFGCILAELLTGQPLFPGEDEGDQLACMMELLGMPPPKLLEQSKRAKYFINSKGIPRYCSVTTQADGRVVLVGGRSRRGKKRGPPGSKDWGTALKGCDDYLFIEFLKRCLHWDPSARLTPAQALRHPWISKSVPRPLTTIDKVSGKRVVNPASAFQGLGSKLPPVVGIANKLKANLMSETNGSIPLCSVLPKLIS
Description: in vitro hYAK3 kinase enzyme inhibition. The class given is biochemical. The settings on record: in vitro assays; compared with Compound B and Compound C. As for the experimental part:
Compound A is tested for its ability to inhibit the hYAK3 kinase enzyme by known methods such as those described in International Application No. PCT/US2003/037658.

Structures are written as SMILES. Where a name gives a salt, the structure may show the parent alone.

Consider `O=C1NC(=Nc2ccccc2Cl)S/C1=C\c1ccc2nccnc2c1` [C•Na, 2-(2-chloro-phenylimino)-5-(quinoxalin-6-ylmethylene)-thiazolidin-4-one sodium salt, reference compound], for which the “Oral DNAUC rats (Sprague-Dawley)” value in data set [1] stood at 0.34 ug · h/mL/min/kg.

For `O=C1NC(=Nc2c(Cl)cc(Cl)cc2Cl)S/C1=C\c1ccc2nccnc2c1` [Compound A, (5Z)-5-(6-quinoxalinylmethylidene)-2-[(2,4,6-trichlorophenyl)amino]-1,3-thiazol-4(5H)-one], the “hYAK3 kinase enzyme inhibition activity” value in data set [2] was “activity similar to Compound B (described herein) and Compound C”. Besides, in data set [1] (compared with the most closely related compounds of PCT/US2003/037658), the bioavailability in vivo result is listed as “significantly greater bioavailability in vivo”. In the case of `O=C1N=C(Nc2c(Cl)cc(Cl)cc2Cl)S/C1=C\c1ccc2nccnc2c1.[Na]` [Compound A•Na, (5Z)-5-(6-quinoxalinylmethylidene)-2-[(2,4,6-trichlorophenyl)amino]-1,3-thiazol-4(5H)-one sodium salt], the “Oral DNAUC rats (Sprague-Dawley)” value in data set [1] was determined as 26.11 ug · h/mL/min/kg. Take `O=C1NC(=Nc2c(Cl)cccc2Cl)S/C1=C\c1ccc2ncccc2c1` [Compound B•Na, 2-(2,6-dichloro-phenylimino)-5-(quinolin-6-ylmethylene)-thiazolidin-4-one sodium salt, reference compound]: the “Oral DNAUC rats (Sprague-Dawley)” value in data set [1] came out at 0.49 ug · h/mL/min/kg.
